Experiments:
Format in all cases: cell-based, human
primary monocytes = assay: IL1FC (IL-1α, IL-1β) production in primary monocytes treated with metabolites; conditions: primary monocytes from four healthy donors, increasing concentrations, 6 hours
Experimental: (§1) FIG. 3. High levels of oxidative stress and increased nucleotide metabolites in IMH individuals can induce cytokine production and expression of inflammasome genes in primary monocytes. Broad-coverage metabolomics profiling was conducted on available serum samples from year 2011 (9 IML and 11 IMH individuals). […] Functional annotation and pathway analysis was conducted using MetPA. A significant enrichment for several metabolic pathways was identified for these metabolites (P<0.05) (a). Conversion of cysteine to cystine; and from arachidonic acid to 8-isoprostane, in the presence of ROS (b). Increased circulating levels of cystine and 8-isoprostane in IMH (b and c) indicate higher levels of oxidative stress (c and d). Adenine, DL-4-hydroxy-3-methoxymandelic acid (vanillylmandelate) (MMA), scyllo-inositol and N4-acetylcytidine (N4A) were selected based on their levels of significance (Q<0.001, see Table 5) and representing different metabolic pathways, to assess their ability to induce IL1FC and expression of NLRC4 in primary monocytes from four healthy donors (shown are the results of one representative experiment). Adenosine was used as a positive control. A significant induction of IL1FC is observed for adenosine and adenine, but not with other compounds (e). The highest dose of each compound (100 μM) was used to determine expression of NLRC4 and NLRP3 by qPCR on the same samples used for cytokine determination (e). […] As previously shown in mice, adenosine treatment up-regulates NLRP3 gene expression (P<0.01) (f). Expression of GAPDH was used to standardize the samples, and the results are expressed as a ratio relative to control. Error bars reflect experimental variability.
The dysfunction in nucleotide metabolism and in mitochondrial bioenergetics described above may explain the generation of circulating metabolites and chronic oxidative stress, respectively. To study whether the circulating metabolites found in higher levels in the sera from IMH compared to IML subjects up-regulate NLRC4 gene expression and/or cytokine production, four candidate compounds identified from our analysis were selected. They represent distinct metabolic pathways. […]
(§2) Adenosine, adenine, DL-4-hydroxy-3-methoxymandelic acid, scyllo-inositol were all purchased form Sigma (Sigma-Aldrich, St. Louis, Mo.) and N4-acetylcytidine was purchased from Santa Cruz Biotechnology (Dallas, Tex.). […] Samples were then transferred to the Human Immune Monitoring Core at Stanford for quantification of cytokines, chemokines and growth factors using the 63-plex Luminex system, as described above. […]

NLRC4 = NLRC4 expression by qPCR in primary monocytes; conditions: 100 μM, 6 hours, GAPDH-standardized, ratio relative to control
Experimental: as §1
(§3) The dysfunction in nucleotide metabolism and in mitochondrial bioenergetics described above may explain the generation of circulating metabolites and chronic oxidative stress, respectively. To study whether the circulating metabolites found in higher levels in the sera from IMH compared to IML subjects up-regulate NLRC4 gene expression and/or cytokine production, four candidate compounds identified from our analysis were selected. They represent distinct metabolic pathways. These included adenine (purine metabolism), DL-4-hydroxy-3-methoxymandelic acid (vanillylmandelate) (phenylalanine and tyrosine metabolism), scyllo-inositol (inositol metabolism) and N4-acetylcytidine (N4A) (pyrimidine metabolism) (Table 5). Adenosine was included as a positive control for IL1FC production. Primary monocytes from four healthy donors were isolated from fresh […] blood and incubated with increasing concentrations of the indicated compounds for 6 hours. […] We also tested whether these stimulations lead to changes in the expression of NLRC4 and NLRP3 (used as a positive control for adenosine stimulation). […] More biochemical studies are necessary to address this.
as §2, with “Tex.). Compounds were tested at the indicated concentrations on isolated monocytes from a healthy donor.” for “Tex.).”

NLRP3 = NLRP3 expression by qPCR in primary monocytes; conditions: 100 μM, 6 hours, GAPDH-standardized, ratio relative to control
Experimental: as §1, §3
as §2, with “Tex.). Compounds were tested at the indicated concentrations on isolated monocytes from a healthy donor.” for “Tex.).”

[1] = test system: differentiated THP-1 cells; assay: Cytokine secretion (ELISA) from differentiated THP-1 cells; conditions: 6 hr; for production of IL-1β / production of IL-18 / production of TNF-α: without ATP pulse
Experimental: FIG. 4. N4-Acetylcytidine and Adenine induce the NLRC4 inflammasome. (a) Differentiated THP-1 cells were treated with ATP (5 mM, 30 min), or primed with LPS (1 μg/ml, 4 hr) and then pulsed with ATP; or treated with indicated concentrations (mM) of Adenine (Ad) or N4-Acetylcytidine (N4A) alone for 6 hr or (b) in combination, and then pulsed or not with ATP. Secretion of cytokines IL-1β, IL-18 and TNF-α were measured by ELISA from cell culture supernatants. (c) Differentiated THP-1 cells were treated with compounds as indicated (1 mM N4A; 300 μM Ad) for 6 hr or ATP 5 mM 30 min, cells were lysed and cell lysates were then immunoblotted with various antibodies to monitor expression of NLRs, Casp1, and prolL-1β. (d) Differentiated THP-1 cells were treated with compounds as before and cell lysates were submitted to immunoprecipitation with Biotinyl-YVAD-fmk peptide. Complexes were then recovered by using Streptavidin-sepharose beads and immunoblotted with anti-Caspase-1 p10 antibody. (e) Differentiated THP-1 cells were treated with compounds as before in the presence or not of Ac-YVAD-fmk or control DMSO, and IL-1β secretion was measured. (f) Differentiated WT or stable shTHP-1 cell lines were treated with compounds as before (1 mM N4A; 300 μM Ad) and IL-1β secretion was measured. To the right, western-blots showing protein expression of NLRC4 in stable shTHP-1 cell lines. (g) Bone marrow-derived macrophages from WT or KO mice as indicated were isolated and treated with combination of compounds (1 mM N4A; 300 μM Ad), and IL-1β secretion was measured. Data are expressed as concentration of cytokines (pg/ml) (mean±SD; n=3). * P<0.05, ** P<0.01.
In parallel experiments, differentiated THP-1 cells and a human monocytic cell Line were treated to address whether the metabolites N4A and adenine, alone or in combination, could induce inflammasome activation and cytokine secretion in vitro.
Adult male mice (12-18 week old) were divided into two groups: PBS or compound treated-mice (N4-Acetylcytidine+Adenine dissolved in PBS). Compound-treated mice were injected with N4-Acetylcytidine and Adenine (stock solution 20 mM each, 100 ul/25 g body weight, retro-orbital injection, once daily) or PBS. After 3 weeks of treatment, while they continued receiving daily injections of PBS or N4A+Adenine, mice from both groups were administered an infusion of human angiotensin II (AngII, #A9525, Sigma-Aldrich, St. Louis, Mo.) for another 2 weeks. Angll (140 ng/kg per min) was dissolved in 100 ul 20 mM (N4A+Adenine) or in 100 ul PBS and loaded into a small osmotic pump (Durect Corporation, Cupertino, Calif., USA). The osmotic pump was then implanted subcutaneously on the dorsal side around the neck of mice under anesthesia ([…]). Systolic blood pressure was measured every other day in conscious mice using tail-cuff plethysmography (Vistech System BP-2000, Apex, N.C., USA). Experiments with human THP-1 cells and primary blood platelets THP-1 monocytic cell lines were cultured in 6-well plates in RPMI media (supplemented with 10% Fetal Bovine Serum) and differentiated overnight with TPA (10 ng/ml). The day after, adherent cells were washed with fresh media and treated with agonists LPS ([…], 4 hrs) and ATP (5 mM, 30 min) or compounds Adenine/N4-Acetylcytidine at various concentrations.

primary platelets = assay: Platelet activation, CD61/CD62P membrane expression by flow cytometry; conditions: platelets of two healthy donors, 6 hrs at 37° C., various concentrations, CD61 and CD62P+
Experimental: Primary platelets were isolated from the blood of two donors and incubated for 6 hr at 37° C. with thrombin, or ADP, or various concentrations of Adenine or N4-Acetylcytidine. Platelet activation was monitored by measuring membrane expression of CD61 and CD62P by flow cytometry. Data are representative of at least three independent experiments with similar results. […] Thus, it was sought to determine whether [MUT] and adenine were able to activate human platelets in vitro. To do so, platelets were isolated from the blood of two healthy donors and incubated for 6 hrs at 37° C. with various concentrations of adenine or [MUT]. Thrombin, and ADP were used as controls and platelet activation was monitored by measuring membrane expression of CD61 and CD62P+ cells by flow cytometry. […] Human primary platelets were prepared from whole blood using a venepuncture in EDTA tube after a 20 min centrifugation at 1000 rpm without acceleration and break. Then the supernatant was harvested and 1 μM PGE1 was added. […] Platelets were then stimulated with thrombin (at 0.5 U/ml), ADP, or with the indicated concentrations of [MUT] or adenine, and activation was monitored by flow cytometry using 25 immunostaining of membrane markers with anti-CD61 (marker of platelet population), and anti-CD62-P (marker of activation involved in aggregation).

primary neutrophils = assay: Primary neutrophil activation (RANKL, degranulation, IL-1β secretion); conditions: 24 hr, various concentrations
Experimental: (b) Primary neutrophils were isolated from blood of healthy donors and incubated for 24 hr with various concentrations of adenine or N4A alone or in combination, and RANK-L+ cells were determined within the CD66b+ population. (c) Primary neutrophils were treated with N4A (1 mM) and/or adenine (1 mM) and the % of degranulated population was measured for each donor. (d) Primary neutrophils were treated as before with compounds as indicated and IL-1β secretion was measured from cell culture supernatants for each donor. Data are expressed as concentration of cytokines (pg/ml), or as fold increase with respect to non-treated (NT) condition as indicated. * P<0.05, ** P<0.01
In addition, the frequencies of 22 different cell subsets in IMH and IML older adults (N=22) were estimated and in a separate analysis, such frequencies were compared between young and older adults (N=86). For these analyses Cibersort (Newman et al. Robust enumeration of cell subsets from tissue expression profiles. Nature Methods 12, 453-457, 2015) was used, which uses gene expression profiles to characterize cell subset composition in complex tissues, such as whole blood. Significant differences were found in the estimated frequencies of circulating mast cells, as well as in the CD4 T regulatory cell compartment between young and older adults (P<0.01). […]

[2] = then pulsed with ATP (5 mM, 30 min)

Row | Structure (SMILES) | IL-1α production (primary monocytes) | IL-1β production (primary monocytes) | expression of NLRC4 (NLRC4) | expression of NLRP3 (NLRP3) | production of IL-1β [1] | production of IL-18 [1] | production of TNF-α [1] | percentage of activated platelets (primary platelets) | RANKL+ cells within the CD66b population (primary neutrophils) | secretion of IL-1β [1, 2] | secretion of IL-18 [1, 2]
1 | Nc1ncnc2[nH]cnc12 [adenine] | significant increase | significant increase | No effect | No effect | neither incubation with adenine nor with N4A alone had an effect | neither incubation with adenine nor with N4A alone had an effect | neither incubation with adenine nor with N4A alone had an effect | robustly induced a dose-dependent increase | induced a potent increase |  | 
2 | COc1cc(C(O)C(=O)O)ccc1O (racemic) [DL-4-hydroxy-3-methoxymandelic acid] |  |  | No effect | No effect |  |  |  |  |  |  | 
3 | Nc1ncnc2c1ncn2[C@@H]1O[C@H](CO)[C@@H](O)[C@H]1O [adenosine, reference compound] | significant increase | significant increase | no increase in NLRC4 was observed | increased expression of NLRP3 |  |  |  |  |  |  | 
4 | CC(=O)Nc1ccn([C@@H]2O[C@H](CO)[C@@H](O)[C@H]2O)c(=O)n1 [N4A, N4-acetylcytidine] |  |  | induced both NLRP3 and NLRC4 | induced both NLRP3 and NLRC4 | neither incubation with adenine nor with N4A alone had an effect | neither incubation with adenine nor with N4A alone had an effect | neither incubation with adenine nor with N4A alone had an effect |  |  | potently induced secretion | potently induced secretion
5 | O[C@H]1[C@H](O)[C@@H](O)[C@H](O)[C@@H](O)[C@@H]1O [scyllo-inositol] |  |  | No effect | No effect |  |  |  |  |  |  | 
